Experimental data published in ChEMBL document CHEMBL1201862, “PubChem BioAssay data set” (2004).
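Compound exposure: 48 hours, 5 concentrations, 96-well plates. Here, GI50 denotes the concentration required for 50% inhibition of growth.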 Activity calls are given as the source filed them. No stated cut-off is given here; in the data, active = GI50 up to about 1.1 µM and inactive = higher.

Tests used:
Assay in all cases: inhibition of tumour cell growth, NCI panel, 48 h
A498 = tested on: A498
A549 = tested on: A549
COLO 205 = tested on: COLO 205
EKVX = tested on: EKVX
HCT-116 = tested on: HCT-116
HL-60 = tested on: HL-60
HT-29 = tested on: HT-29
M14 = tested on: M14
MOLT-4 = tested on: MOLT-4
NCI-H460 = tested on: NCI-H460
RPMI-8226 = tested on: RPMI-8226
SF-539 = tested on: SF-539
SK-MEL-28 = tested on: SK-MEL-28
SNB-19 = tested on: SNB-19
SNB-75 = tested on: SNB-75
UACC-257 = tested on: UACC-257
HCT-15 = tested on: HCT-15

Row | SMILES | GI50 (A498) | GI50 (A549) | GI50 (COLO 205) | GI50 (EKVX) | GI50 (HCT-116) | GI50 (HL-60) | GI50 (HT-29) | GI50 (M14) | GI50 (MOLT-4) | GI50 (NCI-H460) | GI50 (RPMI-8226) | GI50 (SF-539) | GI50 (SK-MEL-28) | GI50 (SNB-19) | GI50 (SNB-75) | GI50 (UACC-257) | GI50 (HCT-15)
1 | Nc1nc(-c2ccccc2)cc(-c2ccccc2O)n1 | 40.7 µM (inactive) | 34.6 µM (inactive) | 43.3 µM (inactive) | 23.7 µM (inactive) | 20.7 µM (inactive) | 16.5 µM (inactive) | 33.4 µM (inactive) | 81.1 µM (inactive) | 25.1 µM (inactive) | 36.2 µM (inactive) | 22.6 µM (inactive) | 37.4 µM (inactive) | 57.1 µM (inactive) | 68.9 µM (inactive) | 36.6 µM (inactive) | 73.8 µM (inactive) | –
2 | CC1CCCP(=O)(c2ccccc2)CCC1 (centres undefined) | > 100 µM (inactive) | > 100 µM (inactive) | > 100 µM (inactive) | > 100 µM (inactive) | – | > 100 µM (inactive) | > 100 µM (inactive) | > 100 µM (inactive) | > 100 µM (inactive) | > 100 µM (inactive) | > 100 µM (inactive) | > 100 µM (inactive) | > 100 µM (inactive) | > 100 µM (inactive) | > 100 µM (inactive) | > 100 µM (inactive) | > 100 µM
3 | O=C(Cc1nc2ccccc2s1)C(=O)Nc1cccc(Cl)c1 | > 100 µM (inactive) | > 100 µM (inactive) | > 100 µM (inactive) | > 100 µM (inactive) | > 100 µM (inactive) | > 100 µM (inactive) | > 100 µM (inactive) | > 100 µM (inactive) | – | – | > 100 µM (inactive) | > 100 µM (inactive) | > 100 µM (inactive) | > 100 µM (inactive) | 48.9 µM (inactive) | > 100 µM (inactive) | > 100 µM
4 | COc1cccc(NC(=O)CC(=O)N2NC(C)C(/N=N/c3cccc(C(=O)O)c3)C2=O)c1 (centres undefined) | > 100 µM (inactive) | > 100 µM (inactive) | > 100 µM (inactive) | > 100 µM (inactive) | > 100 µM (inactive) | – | > 100 µM (inactive) | > 100 µM (inactive) | > 100 µM (inactive) | > 100 µM (inactive) | > 100 µM (inactive) | > 100 µM (inactive) | > 100 µM (inactive) | > 100 µM (inactive) | > 100 µM (inactive) | > 100 µM (inactive) | –
5 | CN(CN1C(=O)C2Cc3ccccc3CN2C1=O)c1ccccn1 (centres undefined) | > 100 µM (inactive) | > 100 µM (inactive) | > 100 µM (inactive) | – | – | > 100 µM (inactive) | – | > 100 µM (inactive) | > 100 µM (inactive) | > 100 µM (inactive) | > 100 µM (inactive) | > 100 µM (inactive) | > 100 µM (inactive) | > 100 µM (inactive) | – | – | > 100 µM
6 | CC(=O)OCC1OC(OC2C(COC(C)=O)OC(Sc3ccccc3C)C(OC(C)=O)C2OC(C)=O)C(OC(C)=O)C(OC(C)=O)C1OC(C)=O (centres undefined) | > 100 µM (inactive) | > 100 µM (inactive) | > 100 µM (inactive) | > 100 µM (inactive) | > 100 µM (inactive) | – | > 100 µM (inactive) | > 100 µM (inactive) | > 100 µM (inactive) | > 100 µM (inactive) | > 100 µM (inactive) | > 100 µM (inactive) | > 100 µM (inactive) | > 100 µM (inactive) | > 100 µM (inactive) | > 100 µM (inactive) | > 100 µM
7 | N=C(c1ccccc1)N(c1ccccc1)c1ccccc1 | – | > 100 µM (inactive) | 19.2 µM (inactive) | 93.3 µM (inactive) | 40.5 µM (inactive) | 20.8 µM (inactive) | 42.5 µM (inactive) | > 100 µM (inactive) | – | 87.5 µM (inactive) | – | 74.1 µM (inactive) | > 100 µM (inactive) | > 100 µM (inactive) | > 100 µM (inactive) | > 100 µM (inactive) | –
8 | CCOC(=O)/C(C(C)=O)=C1/N[C@H](C(=O)OCC)CS1 | – | > 100 µM (inactive) | > 100 µM (inactive) | > 100 µM (inactive) | > 100 µM (inactive) | > 100 µM (inactive) | > 100 µM (inactive) | > 100 µM (inactive) | > 100 µM (inactive) | > 100 µM (inactive) | > 100 µM (inactive) | 10 µM (inactive) | > 100 µM (inactive) | > 100 µM (inactive) | > 100 µM (inactive) | > 100 µM (inactive) | > 100 µM
9 | CC1=CC2CC(C)=C(CC[C@]3(C)CC[C@H]([C@@H](C)C(=O)O)OO3)C(C)(C)C2CC1 (some centres undefined) | 1.75 µM (inactive) | 0.45 µM (active) | 0.403 µM (active) | 1.91 µM (inactive) | 0.457 µM (active) | 0.0863 µM (active) | 0.182 µM (active) | 1.31 µM (inactive) | – | 0.2 µM (active) | 0.304 µM (active) | 1.26 µM (inactive) | 1.57 µM (inactive) | 1.67 µM (inactive) | 0.853 µM (active) | 1.53 µM (inactive) | 0.675 µM
10 | CC(=O)O[C@@]1(C)[C@@H](C)C(=O)O[C@@H]2CCN3CC=C(COC(=O)[C@]1(C)O)[C@H]23 | – | > 100 µM (inactive) | > 100 µM (inactive) | – | > 100 µM (inactive) | > 100 µM (inactive) | > 100 µM (inactive) | > 100 µM (inactive) | > 100 µM (inactive) | > 100 µM (inactive) | > 100 µM (inactive) | > 100 µM (inactive) | > 100 µM (inactive) | > 100 µM (inactive) | 41 µM (inactive) | > 100 µM (inactive) | > 100 µM
11 | O=CC1=CCCC2(C1)OCCO2 | > 100 µM (inactive) | > 100 µM (inactive) | > 100 µM (inactive) | > 100 µM (inactive) | > 100 µM (inactive) | > 100 µM (inactive) | > 100 µM (inactive) | > 100 µM (inactive) | – | > 100 µM (inactive) | > 100 µM (inactive) | > 100 µM (inactive) | > 100 µM (inactive) | > 100 µM (inactive) | 4.95 µM (inactive) | > 100 µM (inactive) | > 100 µM
12 | CC1(C)N=C(c2ccccn2)C(c2ccccn2)=NC1(C)C | > 100 µM (inactive) | > 100 µM (inactive) | > 100 µM (inactive) | > 100 µM (inactive) | > 100 µM (inactive) | > 100 µM (inactive) | > 100 µM (inactive) | > 100 µM (inactive) | > 100 µM (inactive) | > 100 µM (inactive) | > 100 µM (inactive) | > 100 µM (inactive) | – | > 100 µM (inactive) | – | > 100 µM (inactive) | > 100 µM
13 | N#CC(C(=O)/C(=N/NC(=O)c1ccccc1O)C(C#N)c1ccc(Br)cc1)c1ccc(Br)cc1 (centres undefined) | 13.7 µM (inactive) | 14.2 µM (inactive) | 16.5 µM (inactive) | 15.6 µM (inactive) | 12.9 µM (inactive) | – | 13.3 µM (inactive) | 14.3 µM (inactive) | 3.93 µM (inactive) | 14.2 µM (inactive) | – | 10.6 µM (inactive) | 13.8 µM (inactive) | 11.6 µM (inactive) | 2.99 µM (inactive) | 15.1 µM (inactive) | 9.08 µM
14 | Cc1cccc(-c2nnc3s/c(=C\c4ccc5c(c4)OCO5)c(=O)n23)c1 | > 100 µM (inactive) | > 100 µM (inactive) | > 100 µM (inactive) | > 100 µM (inactive) | > 100 µM (inactive) | > 100 µM (inactive) | – | > 100 µM (inactive) | > 100 µM (inactive) | > 100 µM (inactive) | > 100 µM (inactive) | > 100 µM (inactive) | > 100 µM (inactive) | > 100 µM (inactive) | 26.9 µM (inactive) | 29.8 µM (inactive) | > 100 µM
15 | CN1C(=O)C(C)(C)C2(SC(C)(C)C2(C)C)N(C)C1=S (centres undefined) | – | > 100 µM (inactive) | > 100 µM (inactive) | 32 µM (inactive) | > 100 µM (inactive) | 96.2 µM (inactive) | > 100 µM (inactive) | > 100 µM (inactive) | 89.3 µM (inactive) | > 100 µM (inactive) | > 100 µM (inactive) | > 100 µM (inactive) | > 100 µM (inactive) | > 100 µM (inactive) | > 100 µM (inactive) | > 100 µM (inactive) | > 100 µM
16 | CC1=C(C(=O)Nc2ccccc2C)C(c2ccccc2)C(C(=O)Nc2ccccc2C)=C(C)N1 | 29.7 µM (inactive) | 59 µM (inactive) | 24.1 µM (inactive) | 27.7 µM (inactive) | 24.3 µM (inactive) | 15.2 µM (inactive) | 34.7 µM (inactive) | 39.4 µM (inactive) | 9.95 µM (inactive) | 33.6 µM (inactive) | – | 60.4 µM (inactive) | > 100 µM (inactive) | 45.8 µM (inactive) | 35.6 µM (inactive) | 37.8 µM (inactive) | 40.6 µM
17 | COC(=O)[C@]12CCC(C)[C@H](C)[C@H]1C1=CCC3[C@@]4(C)CC[C@H](OC(C)=O)C(C)(C)C4CC[C@@]3(C)C1(C)C(O)C2 (some centres undefined) | > 100 µM (inactive) | > 100 µM (inactive) | > 100 µM (inactive) | > 100 µM (inactive) | 54.2 µM (inactive) | – | > 100 µM (inactive) | > 100 µM (inactive) | 86.5 µM (inactive) | > 100 µM (inactive) | 53.7 µM (inactive) | > 100 µM (inactive) | > 100 µM (inactive) | > 100 µM (inactive) | 45.2 µM (inactive) | > 100 µM (inactive) | –
18 | COc1ccc(/C=C(/C(=O)O)c2cc(OC)c(OC)c(OC)c2)cc1 | 52.4 µM (inactive) | 56.1 µM (inactive) | 33.3 µM (inactive) | > 100 µM (inactive) | 53.3 µM (inactive) | – | 42.1 µM (inactive) | 24.2 µM (inactive) | 45.4 µM (inactive) | 48.1 µM (inactive) | 33.8 µM (inactive) | 19.3 µM (inactive) | 61.9 µM (inactive) | 59.4 µM (inactive) | 21.6 µM (inactive) | 31.5 µM (inactive) | –
